Reference: patent publication US11427558B1, “Indazoles and azaindazoles as LRRK2 inhibitors” (ESCAPE Bio, Inc., priority 2019, dated 2022)

Tests used:
[1] = biological target: Recombinant wild type LRRK2 protein (Homo sapiens (Human), UniProt Q5S007); experiment: LRRK2 kinase activity, LanthaScreen TR-FRET assay (wild type); format: biochemical; details: LRRKtide 400 nM, 25 μM ATP, 60 min; read-out: LRRK2 WT IC50
Experimental: (§1) LRRK2 kinase activity was measured using a LanthaScreen™ Kinase Activity Assay from ThermoFisher Scientific. Recombinant wild type or G2019S-LRRK2 protein (Life Technologies, PR8604B or PV4881, respectively), was incubated with a fluorescein-labeled peptide substrate called LRRKtide that is based upon ezrin/radixin/moesin (ERM) (Life Technologies, PV4901) in the presence of ATP and serially diluted compound. […] Compound-dependent inhibition of the TR-FRET signal was used to generate a concentration-response curve for IC50 determination.
(§2) After 60 min incubation at room temperature, the reaction was stopped by addition of 10 μL of 2× stop solution containing a final concentration of 2 nM anti-pERM antibody and 10 mM EDTA. […] The ratio of the 520 nm and 495 nm emission was used to analyze the data.

[2] = biological target: Recombinant G2019S-LRRK2 protein (Homo sapiens (Human), UniProt Q5S007, G2019S); experiment: LRRK2 kinase activity, LanthaScreen TR-FRET assay (G2019S); format: biochemical; details: LRRKtide 400 nM, 25 μM ATP, 60 min
Experimental: as §1, §2

Sequence of Recombinant G2019S-LRRK2 protein (Q5S007 whole entry G2019S): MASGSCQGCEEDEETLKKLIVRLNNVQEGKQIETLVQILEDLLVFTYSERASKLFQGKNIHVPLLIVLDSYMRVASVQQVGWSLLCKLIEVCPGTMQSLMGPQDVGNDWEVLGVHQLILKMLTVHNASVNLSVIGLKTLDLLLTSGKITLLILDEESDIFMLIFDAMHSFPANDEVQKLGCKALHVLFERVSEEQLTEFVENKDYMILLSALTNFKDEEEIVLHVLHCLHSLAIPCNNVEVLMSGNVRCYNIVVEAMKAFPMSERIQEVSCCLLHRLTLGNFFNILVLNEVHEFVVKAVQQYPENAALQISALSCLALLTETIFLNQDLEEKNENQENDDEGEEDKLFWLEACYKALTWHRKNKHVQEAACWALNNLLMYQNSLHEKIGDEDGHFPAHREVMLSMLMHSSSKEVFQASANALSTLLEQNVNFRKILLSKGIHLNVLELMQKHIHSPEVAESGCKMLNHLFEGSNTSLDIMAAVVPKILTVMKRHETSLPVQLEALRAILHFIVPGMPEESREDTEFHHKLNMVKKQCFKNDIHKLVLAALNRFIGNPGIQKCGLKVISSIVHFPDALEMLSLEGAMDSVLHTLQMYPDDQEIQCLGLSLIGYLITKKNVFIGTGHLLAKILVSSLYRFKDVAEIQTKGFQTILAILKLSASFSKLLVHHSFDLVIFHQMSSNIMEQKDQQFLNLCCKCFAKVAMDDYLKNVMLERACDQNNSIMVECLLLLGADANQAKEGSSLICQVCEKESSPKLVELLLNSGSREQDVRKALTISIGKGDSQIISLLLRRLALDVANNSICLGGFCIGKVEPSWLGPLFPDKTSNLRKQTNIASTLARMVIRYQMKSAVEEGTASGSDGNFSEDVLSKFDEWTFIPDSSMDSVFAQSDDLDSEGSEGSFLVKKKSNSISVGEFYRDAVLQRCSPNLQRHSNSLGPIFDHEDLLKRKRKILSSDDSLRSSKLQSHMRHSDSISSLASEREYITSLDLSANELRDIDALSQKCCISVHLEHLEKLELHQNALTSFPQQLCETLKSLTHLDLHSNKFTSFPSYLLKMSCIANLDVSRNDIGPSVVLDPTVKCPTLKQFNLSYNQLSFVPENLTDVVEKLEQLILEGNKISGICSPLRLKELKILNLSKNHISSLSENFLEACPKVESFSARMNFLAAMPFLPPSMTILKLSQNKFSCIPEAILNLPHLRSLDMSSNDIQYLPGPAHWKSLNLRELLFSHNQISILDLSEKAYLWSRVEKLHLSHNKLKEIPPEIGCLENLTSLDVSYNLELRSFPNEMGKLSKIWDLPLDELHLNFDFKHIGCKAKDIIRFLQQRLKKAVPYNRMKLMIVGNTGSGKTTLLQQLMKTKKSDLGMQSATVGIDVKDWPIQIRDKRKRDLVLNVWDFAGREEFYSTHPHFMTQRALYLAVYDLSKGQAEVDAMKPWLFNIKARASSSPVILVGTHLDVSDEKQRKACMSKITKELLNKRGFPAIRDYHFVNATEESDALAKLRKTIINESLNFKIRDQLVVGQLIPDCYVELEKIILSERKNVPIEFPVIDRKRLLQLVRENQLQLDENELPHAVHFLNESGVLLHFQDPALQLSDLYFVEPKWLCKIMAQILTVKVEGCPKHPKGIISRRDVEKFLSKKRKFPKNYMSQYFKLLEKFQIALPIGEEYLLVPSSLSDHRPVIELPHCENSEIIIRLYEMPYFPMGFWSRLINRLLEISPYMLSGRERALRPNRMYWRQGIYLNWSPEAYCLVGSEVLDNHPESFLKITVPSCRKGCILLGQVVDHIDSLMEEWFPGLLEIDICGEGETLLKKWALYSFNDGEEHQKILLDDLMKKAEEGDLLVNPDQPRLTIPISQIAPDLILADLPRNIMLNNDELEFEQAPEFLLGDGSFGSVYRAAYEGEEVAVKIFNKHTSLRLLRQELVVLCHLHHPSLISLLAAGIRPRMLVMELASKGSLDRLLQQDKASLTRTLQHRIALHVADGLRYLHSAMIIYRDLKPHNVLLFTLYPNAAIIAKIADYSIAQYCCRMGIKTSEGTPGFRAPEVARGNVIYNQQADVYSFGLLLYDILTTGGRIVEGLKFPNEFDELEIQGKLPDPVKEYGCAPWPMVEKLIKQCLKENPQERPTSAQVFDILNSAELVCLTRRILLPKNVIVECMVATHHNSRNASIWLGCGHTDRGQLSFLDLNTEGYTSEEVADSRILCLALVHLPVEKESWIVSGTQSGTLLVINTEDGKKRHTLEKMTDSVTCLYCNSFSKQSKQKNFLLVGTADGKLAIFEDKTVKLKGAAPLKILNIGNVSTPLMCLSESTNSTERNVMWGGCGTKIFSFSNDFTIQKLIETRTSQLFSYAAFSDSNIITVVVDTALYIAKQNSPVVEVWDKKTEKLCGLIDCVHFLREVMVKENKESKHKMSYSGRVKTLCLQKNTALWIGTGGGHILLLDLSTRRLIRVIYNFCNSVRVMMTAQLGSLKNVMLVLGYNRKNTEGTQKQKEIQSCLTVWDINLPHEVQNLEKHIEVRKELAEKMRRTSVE
Sequence of Recombinant wild type LRRK2 protein (Q5S007 whole entry): as the sequence (Q5S007 whole entry G2019S) above, with S2019G counted along it

Compound	IC50 [1]	IC50 [2]
2-Chloro-3-cyano-N-(3-(1-(difluoromethyl)-1H-pyrazol-3-yl)-1H-indazol-5-yl)benzamide [Example 166]	< 100 nM	< 100 nM
4-Cyano-N-(3-(1-(difluoromethyl)-1H-pyrazol-3-yl)-1H-indazol-5-yl)-2-fluoro-6-methylbenzamide [Example 165]	< 100 nM	< 100 nM
N#Cc1cnc(C(=O)Nc2ccc3[nH]nc(-c4ccoc4)c3c2)c(F)c1 [Example 1, 5-Cyano-3-fluoro-N-(3-(furan-3-yl)-1H-indazol-5-yl)picolinamide]	< 100 nM	< 100 nM
N#Cc1ccc(C(=O)Nc2ccc3[nH]nc(-c4ccoc4)c3c2)c(Br)c1 [Example 2, 2-Bromo-4-cyano-N-(3-(furan-3-yl)-1H-indazol-5-yl)benzamide]	< 100 nM	< 100 nM
N#Cc1ccc(C(=O)Nc2ccc3[nH]nc(-c4ccoc4)c3c2)c(F)c1 [Example 3, 4-Cyano-2-fluoro-N-(3-(furan-3-yl)-1H-indazol-5-yl)benzamide]	< 100 nM	< 100 nM
N#Cc1ccc(C(=O)Nc2ccc3[nH]nc(-c4ccoc4)c3c2)c(I)c1 [Example 4, 4-Cyano-N-(3-(furan-3-yl)-1H-indazol-5-yl)-2-iodobenzamide]	< 100 nM	< 100 nM
N#Cc1ccc(C(=O)Nc2ccc3[nH]nc(-c4ccoc4)c3c2)c(Cl)c1 [Example 5, 2-Chloro-4-cyano-N-(3-(furan-3-yl)-1H-indazol-5-yl)benzamide]	< 100 nM	< 100 nM
N#Cc1ccc(C(=O)Nc2ccc3[nH]nc(-c4ccoc4)c3c2)c(C(F)(F)F)c1 [Example 6, 4-Cyano-N-(3-(furan-3-yl)-1H-indazol-5-yl)-2-(trifluoromethyl)benzamide]	< 100 nM	< 100 nM
N#Cc1cc(F)c(C(=O)Nc2ccc3[nH]nc(-c4ccoc4)c3c2)c(F)c1 [Example 7, 4-Cyano-2,6-difluoro-N-(3-(furan-3-yl)-1H-indazol-5-yl)benzamide]	< 100 nM	< 100 nM
Cc1nc(C#N)ccc1C(=O)Nc1ccc2[nH]nc(-c3ccoc3)c2c1 [Example 8, 6-Cyano-N-(3-(furan-3-yl)-1H-indazol-5-yl)-2-methylnicotinamide]	100 to 1000 nM	< 100 nM
N#Cc1ccc(C(=O)Nc2ccc3[nH]nc(-c4ccoc4)c3c2)cn1 [Example 9, 6-Cyano-N-(3-(furan-3-yl)-1H-indazol-5-yl)nicotinamide]	100 to 1000 nM	< 100 nM
Cc1cc(C#N)cc(C)c1C(=O)Nc1ccc2[nH]nc(-c3ccoc3)c2c1 [Example 10, 4-Cyano-N-(3-(furan-3-yl)-1H-indazol-5-yl)-2,6-dimethylbenzamide]	< 100 nM	< 100 nM
N#Cc1ccc(C(=O)Nc2ccc3[nH]nc(-c4ccoc4)c3c2)cc1 [Example 11, 4-Cyano-N-(3-(furan-3-yl)-1H-indazol-5-yl)benzamide]	100 to 1000 nM	< 100 nM
Cc1cc(C#N)ccc1C(=O)Nc1ccc2[nH]nc(C)c2c1 [Example 12, 4-Cyano-2-methyl-N-(3-methyl-1H-indazol-5-yl)benzamide]	100 to 1000 nM	< 100 nM
Cc1nc(C(=O)Nc2ccc3[nH]nc(-c4ccoc4)c3c2)ccc1C#N [Example 13, 5-Cyano-N-(3-(furan-3-yl)-1H-indazol-5-yl)-6-methylpicolinamide]	100 to 1000 nM	< 100 nM
COc1cc(C#N)ccc1C(=O)Nc1ccc2[nH]nc(-c3ccoc3)c2c1 [Example 15, 4-Cyano-N-(3-(furan-3-yl)-1H-indazol-5-yl)-2-methoxybenzamide]	100 to 1000 nM	< 100 nM
N#Cc1ccc(C(=O)Nc2ccc3[nH]nc(-c4ccoc4)c3c2)nc1 [Example 16, 5-Cyano-N-(3-(furan-3-yl)-1H-indazol-5-yl)picolinamide]	100 to 1000 nM	< 100 nM
Cc1ccc(C#N)cc1C(=O)Nc1ccc2[nH]nc(-c3ccoc3)c2c1 [Example 17, 5-Cyano-N-(3-(furan-3-yl)-1H-indazol-5-yl)-2-methylbenzamide]	< 100 nM	< 100 nM
Cc1cc(C#N)ccc1C(=O)Nc1ccc2[nH]nc(-c3ccoc3)c2c1 [Example 18, 4-Cyano-N-(3-(furan-3-yl)-1H-indazol-5-yl)-2-methylbenzamide]	< 100 nM	< 100 nM

Compound	IC50 [1]	IC50 [2]
Cc1c(C#N)cccc1C(=O)Nc1ccc2[nH]nc(-c3ccoc3)c2c1 [Example 19, 3-Cyano-N-(3-(furan-3-yl)-1H-indazol-5-yl)-2-methylbenzamide]	< 100 nM	< 100 nM
N#Cc1ncc(C(=O)Nc2ccc3[nH]nc(-c4ccoc4)c3c2)s1 [Example 20, 2-Cyano-N-(3-(furan-3-yl)-1H-indazol-5-yl)thiazole-5-carboxamide]	100 to 1000 nM	< 100 nM
N#Cc1cccc(C(=O)Nc2ccc3[nH]nc(-c4ccncc4)c3c2)c1 [Example 21, 3-Cyano-N-(3-(pyridin-4-yl)-1H-indazol-5-yl)benzamide]	< 100 nM	< 100 nM
N#Cc1cc(C(=O)Nc2ccc3[nH]nc(-c4ccncc4)c3c2)ccn1 [Example 22, 2-Cyano-N-(3-(pyridin-4-yl)-1H-indazol-5-yl)isonicotinamide]	< 100 nM	< 100 nM
N#Cc1ccnc(C(=O)Nc2ccc3[nH]nc(-c4ccncc4)c3c2)c1 [Example 23, 4-Cyano-N-(3-(pyridin-4-yl)-1H-indazol-5-yl)picolinamide]	100 to 1000 nM	< 100 nM
N#Cc1cncc(C(=O)Nc2ccc3[nH]nc(-c4ccncc4)c3c2)c1 [Example 24, 5-Cyano-N-(3-(pyridin-4-yl)-1H-indazol-5-yl)nicotinamide]	100 to 1000 nM	100 to 1000 nM
N#Cc1ncc(C(=O)Nc2ccc3[nH]nc(-c4ccncc4)c3c2)cn1 [Example 25, 2-Cyano-N-(3-(pyridin-4-yl)-1H-indazol-5-yl)pyrimidine-5-carboxamide]	100 to 1000 nM	100 to 1000 nM
Cc1c(C(=O)Nc2ccc3[nH]nc(-c4ccccc4)c3c2)cc(C#N)n1C [Example 26, 5-Cyano-1,2-dimethyl-N-(3-phenyl-1H-indazol-5-yl)-1H-pyrrole-3-carboxamide]	100 to 1000 nM	< 100 nM
Cc1oc(C#N)cc1C(=O)Nc1ccc2[nH]nc(-c3ccccc3)c2c1 [Example 27, 5-Cyano-2-methyl-N-(3-phenyl-1H-indazol-5-yl)furan-3-carboxamide]	100 to 1000 nM	< 100 nM
Cc1ccc(-c2n[nH]c3ccc(NC(=O)c4ncc(C#N)cc4C)cc23)cc1C [Example 28, 5-Cyano-N-(3-(3,4-dimethylphenyl)-1H-indazol-5-yl)-3-methylpicolinamide]	100 to 1000 nM	< 100 nM
Cc1cc(C#N)cnc1C(=O)Nc1ccc2[nH]nc(-c3ccco3)c2c1 [Example 29, 5-Cyano-N-(3-(furan-2-yl)-1H-indazol-5-yl)-3-methylpicolinamide]	100 to 1000 nM	< 100 nM
Cc1cc(C#N)cnc1C(=O)Nc1ccc2[nH]nc(-c3cccc(N(C)C)c3)c2c1 [Example 30, 5-Cyano-N-(3-(3-(dimethylamino)phenyl)-1H-indazol-5-yl)-3-methylpicolinamide]	100 to 1000 nM	< 100 nM
Cc1cc(C#N)cnc1C(=O)Nc1ccc2[nH]nc(-c3ccncc3)c2c1 [Example 31, 5-Cyano-3-methyl-N-(3-(pyridin-4-yl)-1H-indazol-5-yl)picolinamide]	100 to 1000 nM	< 100 nM
Cc1cc(C#N)cnc1C(=O)Nc1ccc2[nH]nc(-c3cnn(C(F)F)c3)c2c1 [Example 32, 5-Cyano-N-(3-(1-(difluoromethyl)-1H-pyrazol-4-yl)-1H-indazol-5-yl)-3-methylpicolinamide]	100 to 1000 nM	< 100 nM
Cc1cc(C#N)cnc1C(=O)Nc1ccc2[nH]nc(-c3cnn(C4CCOCC4)c3)c2c1 [Example 33, 5-cyano-3-methyl-N-(3-(1-(tetrahydro-2H-pyran-4-yl)-1H-pyrazol-4-yl)-1H-indazol-5-yl)picolinamide]	< 100 nM	< 100 nM
Cc1cc(C#N)cnc1C(=O)Nc1ccc2[nH]nc(-c3cccc(S(C)(=O)=O)c3)c2c1 [Example 34, 5-Cyano-3-methyl-N-(3-(3-(methylsulfonyl)phenyl)-1H-indazol-5-yl)picolinamide]	< 100 nM	< 100 nM
Cc1cc(C#N)cnc1C(=O)Nc1ccc2[nH]nc(-c3ccc(C(F)(F)F)cc3)c2c1 [Example 35, 5-Cyano-3-methyl-N-(3-(4-(trifluoromethyl)phenyl)-1H-indazol-5-yl)picolinamide]	> 10000 nM	100 to 1000 nM
Cc1cc(C#N)cnc1C(=O)Nc1ccc2[nH]nc(-c3cnoc3C)c2c1 [Example 36, 5-Cyano-3-methyl-N-(3-(5-methylisoxazol-4-yl)-1H-indazol-5-yl)picolinamide]	> 10000 nM	< 100 nM
Cc1cc(C#N)cnc1C(=O)Nc1ccc2[nH]nc(-c3ccoc3)c2n1 [Example 105, 5-Cyano-N-(3-(furan-3-yl)-1H-pyrazolo[4,3-b]pyridin-5-yl)-3-methylpicolinamide]	100 to 1000 nM	
